One block for each molecule: values may come before it. Activity calls are given as the source filed them. No cut-off for these calls is given here. Square brackets hold non-standard residues; d marks the D form. Peptide text beside a SMILES is read from it. Bta = N[C@@H](Cc1csc2ccccc12)C(=O)O
Tests used:
[1] = Drug uptake in human K562 cells assessed as membrane penetration by measuring increase in fluorescence intensity at 5 umol/L incubated for 2 hrs by flow cytometry relative to C9C; format: ADME, cell-based; details: k562, 2 h, 5 µM, dose 5 µmol/L
[2] = Drug uptake in human KU812 cells assessed as membrane penetration by measuring increase in fluorescence intensity at 5 umol/L incubated for 2 hrs by flow cytometry relative to C9C; format: ADME, cell-based; details: ku812, 2 h, 5 µM, dose 5 µmol/L
[3] = Interaction with IMA-PROTAC assessed as induction of assembly formation by transmission electron microscopy; format: physicochemical
[4] = Drug uptake in human K562 cells assessed as increase in fluorescence intensity at 5 umol/L measured for 60 to 240 mins by flow cytometry; format: ADME, cell-based; details: k562, 5 µM, TDE = time-dependent effect, time 60-240 min, dose 5 µmol/L
[5] = Drug uptake in human KU812 cells assessed as increase in fluorescence intensity at 1 to 10 uM incubated for 2 hrs by flow cytometry; format: ADME, cell-based; details: ku812, 2 h, dose 1-10 µM
[6] = Stability of the compound in fetal bovine serum assessed as parent compound remaining measured after 12 hrs by HPLC-MS analysis; format: ADME, cell-free, Bos taurus; details: cattle, read-out: Stability
[7] = test system: K562; test: Induction of apoptosis in human K562 cells assessed as viable cells at PROTAC to compound concentration ratio of 1:5 incubated for 48 hrs in presence of 3 umol/L IMA-PROTAC by AnnexinV-FITC/PI staining based flow cytometry (reference value: 99.85%); format: functional
[8] = test system: K562; test: Increase in membrane permeability of IMA-PROTAC in human K562 cells assessed as potentiation of IMA-PROTAC-induced Bcr-Abl degradation at PROTAC to compound concentration ratio of 1:5 to 1:3 incubated for 48 hrs in presence of 3 umol/L IMA-PROTAC by western blot analysis; format: functional, cell-based
[9] = Drug uptake in human KU812 cells assessed as membrane permeability by measuring increase in fluorescence intensity at 5 umol/L incubated for 2 hrs by flow cytometry relative to THP-1 cells; format: ADME, cell-based; details: ku812, 2 h, 5 µM, dose 5 µmol/L
[10] = test system: K562; test: Induction of apoptosis in human K562 cells assessed as early apoptotic cells at PROTAC to compound concentration ratio of 1:5 incubated for 48 hrs in presence of 3 umol/L IMA-PROTAC by AnnexinV-FITC/PI staining based flow cytometry (reference value: 0.03%); format: functional
[11] = Drug uptake in human K562 cells assessed as membrane permeability by measuring increase in fluorescence intensity at 5 umol/L incubated for 2 hrs by flow cytometry relative to THP-1 cells; format: ADME, cell-based; details: k562, 2 h, 5 µM, dose 5 µmol/L
[12] = Interaction with IMA-PROTAC assessed as induction of formation of micelle cluster with uniform and distinct spherical morphology by transmission electron microscopy; format: physicochemical
[13] = Drug uptake in human K562 cells assessed as fluorescence intensity at 5 umol/L pretreated with endocytosis inhibitor, methyl-beta-cyclodextrin for 0.5 hrs followed by incubation with compound for 2 hrs by FACS analysis; format: ADME, cell-based; details: k562, 2 h, 5 µM, dose 5 µmol/L
[14] = test system: K562; test: Induction of apoptosis in human K562 cells assessed as late apoptotic cells at PROTAC to compound concentration ratio of 1:5 incubated for 48 hrs in presence of 3 umol/L IMA-PROTAC by AnnexinV-FITC/PI staining based flow cytometry (reference value: 0.01%); format: functional
[15] = Drug uptake in human K562 cells assessed as fluorescence intensity at 5 umol/L pretreated with endocytosis inhibitor, chloroquine for 0.5 hrs followed by incubation with compound for 2 hrs by FACS analysis; format: ADME, cell-based; details: k562, 2 h, 5 µM, dose 5 µmol/L
[16] = Drug uptake in human CCRF-CEM cells assessed as perinuclear distribution and colocalization with nucleus at 10 umol/L incubated for 2 hrs by confocal laser microscopy; format: ADME, cell-based; details: 10 µM, dose 10 µmol/L
[17] = Drug uptake in human K562 cells assessed as increase in fluorescence intensity at 5 umol/L measured for 5 to 30 mins by flow cytometry; format: ADME, cell-based; details: k562, 5 µM, TDE = time-dependent effect, time 5-30 min, dose 5 µmol/L
[18] = Increase in membrane permeation of IMA-PROTAC in human K562 cells assessed as increase in intracellular content of IMA-PROTAC incubated for 3 hrs by HPLC-MRM-MS analysis relative to control; format: functional
[19] = test system: K562; test: Induction of cell cycle arrest in human K562 cells assessed as accumulation of cells at G2/M phase at PROTAC to compound concentration ratio of 1:5 incubated for 48 hrs in presence of 3 umol/L IMA-PROTAC by propidium iodide staining based flow cytometry; format: functional
[20] = Drug uptake in human KU812 cells assessed as perinuclear distribution and colocalization with nucleus at 10 umol/L incubated for 2 hrs by confocal laser microscopy; format: ADME, cell-based; details: ku812, 2 h, 10 µM, dose 10 µmol/L
[21] = Drug uptake in human K562 cells assessed as increase in fluorescence intensity at 1 to 10 umol/L incubated for 2 hrs by cell imaging based fluorescence microscopic analysis; format: ADME; details: k562, 2 h, dose 1-10 µmol/L
[22] = test system: K562; test: Induction of apoptosis in human K562 cells assessed as necrotic cells at PROTAC to compound concentration ratio of 1:5 incubated for 48 hrs in presence of 3 umol/L IMA-PROTAC by AnnexinV-FITC/PI staining based flow cytometry (reference value: 0.1%); format: functional
[23] = test system: K562; test: Potentiation of IMA-PROTAC-induced cytotoxicity against human K562 cells assessed as inhibition of cell growth at compound: IMA-PROTAC concentration ratio of 5:1 incubated for 48 hrs in presence of 3 umo/L IMA-PROTAC by MTT assay; format: functional, cell-based
[24] = Stability of the compound in fetal bovine serum assessed as parent compound remaining measured after 36 hrs by HPLC-MS analysis; format: ADME, cell-free, Bos taurus; details: cattle, read-out: Stability
[25] = Cytotoxicity against human KU812 cells assessed as cell viability at 0.01 to 100 uM incubated for 48 hrs by MTT assay; format: toxicity, cell-based; details: dose 0.01-100 µM, read-out: Activity
[26] = Cytotoxicity against human THP-1 cells assessed as cell viability at higher concentrations incubated for 48 hrs by MTT assay; format: toxicity, cell-based; details: read-out: Activity
[27] = Drug uptake in human K562 cells assessed as fluorescence intensity at 5 umol/L pretreated with endocytosis inhibitor, chlorpromazine for 0.5 hrs followed by incubation with compound for 2 hrs by FACS analysis; format: ADME, cell-based; details: k562, 2 h, 5 µM, dose 5 µmol/L
[28] = Stability of the compound in fetal bovine serum assessed as parent compound remaining measured after 8 hrs by HPLC-MS analysis; format: ADME, cell-free, Bos taurus; details: cattle, read-out: Stability
[29] = Drug uptake in human K562 cells assessed as perinuclear distribution and colocalization with nucleus at 10 umol/L incubated for 2 hrs by confocal laser microscopy; format: ADME, cell-based; details: k562, 2 h, 10 µM, dose 10 µmol/L
[30] = Cytotoxicity against human K562 cells assessed as cell viability at 0.01 to 100 uM incubated for 48 hrs by MTT assay; format: toxicity, cell-based; details: dose 0.01-100 µM, read-out: Activity
[31] = Drug uptake in human KU812 cells assessed as increase in fluorescence intensity at 1 to 10 umol/L incubated for 2 hrs by cell imaging based fluorescence microscopic analysis; format: ADME; details: ku812, 2 h, dose 1-10 µmol/L
[32] = Cytotoxicity against human CCRF-CEM cells assessed as cell viability at 0.01 to 100 uM incubated for 48 hrs by MTT assay; format: toxicity, cell-based; details: dose 0.01-100 µM, read-out: Activity
[33] = Drug uptake in human K562 cells assessed as increase in fluorescence intensity at 5 umol/L pretreated with endocytosis inhibitor, nystatin for 0.5 hrs followed by incubation with compound for 2 hrs by FACS analysis; format: ADME, cell-based; details: k562, 2 h, 5 µM, dose 5 µmol/L
[34] = Drug uptake in human K562 cells assessed as increase in fluorescence intensity at 1 to 10 uM incubated for 2 hrs by flow cytometry; format: ADME, cell-based; details: k562, 2 h, dose 1-10 µM
[35] = test system: K562; test: Increase in membrane permeability of IMA-PROTAC in human K562 cells assessed as potentiation of IMA-PROTAC-induced inhibition of STAT5 phosphorylation at PROTAC to compound concentration ratio of 1:5 to 1:3 incubated for 48 hrs in presence of 3 umol/L IMA-PROTAC by western blot analysis; format: functional, cell-based

fold change (FC) [1]: 2.8
Compound: CC(C)C[C@@H]1NC(=O)[C@H](Cc2c[nH]c3ccccc23)NC(=O)[C@H](Cc2ccccc2)NC(=O)[C@H](Cc2ccccc2)NC(=O)CNC(=O)[C@H](CCCCN)NC(=O)[C@H](CCC(=O)O)NC(=O)[C@H](CO)NC(=O)[C@H](CCCNC(=N)N)NC1=O (cyclo(EKGFFWLRS))

fold change (FC) [2]: 5.65 | fold change (FC) [1]: 5.28
Compound: CC(C)C[C@@H]1NC(=O)[C@H](Cc2c[nH]c3ccccc23)NC(=O)[C@H](Cc2ccccc2)NC(=O)[C@H](Cc2ccccc2)NC(=O)[C@H](CCCNC(=N)N)NC(=O)[C@H](CCCCN)NC(=O)[C@H](CCC(=O)O)NC(=O)[C@H](CO)NC(=O)[C@H](CCCNC(=N)N)NC1=O (cyclo(EKRFFWLRS))

Activity [3]: Not Active | Drug uptake [4]: Tde | fold change (FC) [2]: 7.99 | Drug uptake [5]: Dose-Dependent Effect | remaining at 12 h [6]: 80% | fold change (FC) [9]: 11.7 | fold change (FC) [11]: 33.3 | Activity [12]: Not Active | Drug uptake [13]: Not Active | Drug uptake [15]: Not Active | Drug uptake [16]: Active | Drug uptake [17]: Tde | Drug uptake [20]: Active | Drug uptake [21]: Active | remaining at 36 h [24]: 75% | Drug uptake [27]: Not Active | remaining at 8 h [28]: 100% | Drug uptake [29]: Active | Drug uptake [31]: Active | fold change (FC) [1]: 9.24 | Drug uptake [33]: Active | Drug uptake [34]: Dose-Dependent Effect
Compound: CC(C)C[C@@H]1NC(=O)[C@H](Cc2c[nH]c3ccccc23)NC(=O)[C@H](Cc2ccc(O)cc2)NC(=O)[C@H](Cc2ccccc2)NC(=O)[C@H](CCCNC(=N)N)NC(=O)[C@H](CCCCN)NC(=O)[C@H](CCC(=O)O)NC(=O)[C@H](CO)NC(=O)[C@H](CCCNC(=N)N)NC1=O (cyclo(EKRFYWLRS))
Activity [7]: 87.64% | Activity [8]: Active | Activity [10]: 10.71% | Activity [14]: 1.58% | fold change (FC) [18]: 2.05 | Activity [19]: Active | Activity [22]: 0.06% | Activity [23]: inactive | viability at 48 h, up to 100 µM [25]: > 75% | viability at 48 h [26]: > 75% | viability at 48 h, up to 100 µM [30]: > 75% | viability at 48 h, up to 100 µM [32]: > 75% | Activity [35]: Active

fold change (FC) [2]: 2.69 | fold change (FC) [1]: 5.04
Compound: CC(C)C[C@@H]1NC(=O)[C@H](Cc2csc3ccccc23)NC(=O)[C@H](Cc2ccc(O)cc2)NC(=O)[C@H](Cc2ccccc2)NC(=O)[C@H](CCCNC(=N)N)NC(=O)[C@H](CCCCN)NC(=O)[C@H](CCC(=O)O)NC(=O)[C@H](CO)NC(=O)[C@H](CCCNC(=N)N)NC1=O (cyclo([Bta]LRSEKRFY))
